No end group written: not given here.
Test system: sera from patients infected with group O HIV-1 retroviruses
Assay: Immunoenzymatic test: Test No. 1 (immunoreactivity of peptides coated on microplates)
Format: binding, human
Design: key to ABSORBANCE: >: signal greater than the reading capacity of the spectrophotometer
Details: for ABSORBANCE: cyclized peptide 2 μg/ml
Description: The sera used ESS, DUR, VAU and HAD are sera from French patients infected with group O HIV-1 retroviruses. The other serum samples from patients infected with group O HIV-1 retroviruses were obtained by the Yaoundé Pasteur Centre in Cameroon and were serotyped group O according to the serological algorithm described in AIDS (1977), 11, pp 445-453.
The HIV-negative sera (n=48) were obtained from healthy volunteers.
The synthetic peptides used were dissolved in water at a concentration of 1 mg/ml (stock solution). For the solid phase sensitization step (coating), 110 μl of a solution at 2 μg/ml of each peptide (obtained by diluting the stock solution with 0.1 M carbonate buffer solution) were added to each well of the microtitre plates Microtiter™ (NUNC). After incubating overnight at room temperature, the microplates were first washed with a Tris-NaCl buffer solution pH 7.4 containing 0.1% of Tween® 20 and 0.001% sodium merthiolate, and then saturated with a PBS solution containing 0.5% of Régilait™ (dried skimmed milk). After aspirating the saturating solution, the plates were heated for 10 min at 50° C.
The serum samples were diluted 1/5 with a skimmed milk solution (citrate buffer supplemented with 0.01% of phenol red, 0.25% of chloroform and 0.25% of Kathon®), deposited in the wells of the plates and incubated for 30 min at 40° C.
After washing with a Tris-NaCl buffer solution pH 7.4 containing 0.1% of Tween® 20 and 0.001% of sodium merthiolate, 100 μl of a solution of conjugate consisting of horseradish peroxidase-labelled anti-human IgG and IgM goat antibodies, containing as preservative 0.01% of sodium merthiolate, in solution in a citrate buffer solution supplemented with 30% glycerol and 25% normal foetal calf serum, were added to each plate well and then the plates were incubated for 30 min at 40° C.
After washing with a Tris-NaCl buffer solution pH 7.4 containing 0.1% of Tween® 20 and 0.001% of sodium merthiolate, the colour was developed by adding, to each well, 100 μl of O-phenylenediamine in solution in hydrogen peroxide. The microplates were then incubated for 30 min at room temperature and in the dark. The coloured reaction was then stopped by addition of 100 μl of 4N sulphuric acid. The absorbance (A) was determined at 490 and 620 nm.
The relative absorbance (A490-A620) read in each well is proportional to the immunoreactivity of each peptide. It indicates the ability of each peptide to react with the biological sample with which the test is carried out. The cut-off value was determined as being an absorbance equal to 0.15. It corresponds to the mean of the negative values (n=48) plus 12 standard deviations.
The reactivity of the peptides of the invention (peptide No. 3 (4B), peptide No. 2 (3B) and peptide No. 1 (2B), all in cyclized form), was compared with that of two synthetic peptides having, as sequence, a portion of the natural sequence of the envelope (env) of the VAU isolate (group O HIV-1 retrovirus) and comprising an immunodominant epitope of gp41.
For the study, these peptides were used in cyclized form.

For “LLNLWGCKNRAICYTSVKWNKT (cysteine pairing not given here) [VAU 22 AA, reference compound]”, the ABSORBANCE (serum 134) was “>”, the ABSORBANCE (serum 402) was “>” and the ABSORBANCE (serum 625) was “>”. The ABSORBANCE (serum 1062) was “>”, the ABSORBANCE (serum 1105*) was 0.099 and the ABSORBANCE (serum 1581) was 1.112. For the same sequence, the ABSORBANCE (serum 1702) was “>”, the ABSORBANCE (serum 1754) was 1.263 and the ABSORBANCE (serum 2294) was “>”. For the same sequence, the ABSORBANCE (serum 2312) was “>”, the ABSORBANCE (serum 2313) was “>” and the ABSORBANCE (serum 2352) was “>”. The ABSORBANCE (serum 2551) was “>”, the ABSORBANCE (serum 2700) was “>” and the ABSORBANCE (serum 3016) was “>”. For the same sequence, the ABSORBANCE (serum 3136) was “>”, the ABSORBANCE (serum 3235) was “>” and the ABSORBANCE (serum 3236) was “>”. For the same sequence, the ABSORBANCE (serum 3302) was “>”, the ABSORBANCE (serum 3482) was “>” and the ABSORBANCE (serum 3529) was “>”. The ABSORBANCE (serum 3600*) was “>”, the ABSORBANCE (serum 3627*) was “>” and the ABSORBANCE (serum 3637) was 0.779. The ABSORBANCE (serum 3653) was 1.441, the ABSORBANCE (serum 3771) was “>” and the ABSORBANCE (serum 3884*) was “>”. The ABSORBANCE (serum 3891) was “>”, the ABSORBANCE (serum 3935) was 0.138 and the ABSORBANCE (serum 3945) was “>”. The ABSORBANCE (serum 4021*) was 0.050, the ABSORBANCE (serum 4288*) was 2.337 and the ABSORBANCE (serum 4364) was “>”. The ABSORBANCE (serum 4434) was 2.273, the ABSORBANCE (serum 4477) was 2.511 and the ABSORBANCE (serum 4489*) was 1.318. For the same sequence, the ABSORBANCE (serum 5149*) was “>”, the ABSORBANCE (serum 5164) was “>” and the ABSORBANCE (serum 5210) was “>”. For the same sequence, the ABSORBANCE (serum 5270*) was “>”, the ABSORBANCE (serum 5373) was 1.359 and the ABSORBANCE (serum 5453) was 1.267. For the same sequence, the ABSORBANCE (serum 5766*) was “>”, the ABSORBANCE (serum 5931) was 0.202 and the ABSORBANCE (serum 5969*) was 2.491. For the same sequence, the ABSORBANCE (serum 6111) was “>”, the ABSORBANCE (serum 6165) was “>” and the ABSORBANCE (serum 6198*) was “>”. It also gave an ABSORBANCE (serum 6295*) of 0.972, an ABSORBANCE (serum 6487) of 2.889 and an ABSORBANCE (serum 6512*) of 0.120. For the same sequence, the ABSORBANCE (serum 6627) was “>”, the ABSORBANCE (serum 6689*) was “>” and the ABSORBANCE (serum 6697) was “>”. For the same sequence, the ABSORBANCE (serum 6782) was 2.190, the ABSORBANCE (serum 6891) was 0.359 and the ABSORBANCE (serum 6976*) was “>”. For the same sequence, the ABSORBANCE (serum 6998) was “>”, the ABSORBANCE (serum 7007) was “>” and the ABSORBANCE (serum 7120) was “>”. The ABSORBANCE (serum 7212) was “>”, the ABSORBANCE (serum 7258*) was “>” and the ABSORBANCE (serum 7297*) was “>”. For the same sequence, the ABSORBANCE (serum 7439) was “>”, the ABSORBANCE (serum 7443) was 0.920 and the ABSORBANCE (serum DUR*) was 0.118. The ABSORBANCE (serum ESS*) was “>”, the ABSORBANCE (serum HAD) was 0.789 and the ABSORBANCE (serum VAU*) was “>”.

With “LLSLWGCRGKAVCYTSVQWNET [PEPTIDE No. 1 (2B)]” the ABSORBANCE (serum 134) was “>”, the ABSORBANCE (serum 402) was “>” and the ABSORBANCE (serum 625) was “>”. The ABSORBANCE (serum 1062) was “>”, the ABSORBANCE (serum 1105*) was “>” and the ABSORBANCE (serum 1581) was “>”. For the same sequence, the ABSORBANCE (serum 1702) was 1.162, the ABSORBANCE (serum 1754) was “>” and the ABSORBANCE (serum 2294) was 0.447. For the same sequence, the ABSORBANCE (serum 2312) was “>”, the ABSORBANCE (serum 2313) was “>” and the ABSORBANCE (serum 2352) was 0.205. The ABSORBANCE (serum 2551) was “>”, the ABSORBANCE (serum 2700) was “>” and the ABSORBANCE (serum 3016) was 0.243. For the same sequence, the ABSORBANCE (serum 3136) was 0.302, the ABSORBANCE (serum 3235) was “>” and the ABSORBANCE (serum 3236) was “>”. It also gave an ABSORBANCE (serum 3302) of 0.386, an ABSORBANCE (serum 3482) of 1.473 and an ABSORBANCE (serum 3529) of 1.803. For the same sequence, the ABSORBANCE (serum 3600*) was 2.743, the ABSORBANCE (serum 3627*) was 2.910 and the ABSORBANCE (serum 3637) was “>”. The ABSORBANCE (serum 3653) was 0.044, the ABSORBANCE (serum 3771) was 0.544 and the ABSORBANCE (serum 3884*) was 1.839. The ABSORBANCE (serum 3891) was 2.780, the ABSORBANCE (serum 3935) was 0.307 and the ABSORBANCE (serum 3945) was “>”. For the same sequence, the ABSORBANCE (serum 4021*) was “>”, the ABSORBANCE (serum 4288*) was 2.802 and the ABSORBANCE (serum 4364) was 1.382. For the same sequence, the ABSORBANCE (serum 4434) was “>”, the ABSORBANCE (serum 4477) was “>” and the ABSORBANCE (serum 4489*) was “>”. For the same sequence, the ABSORBANCE (serum 5149*) was “>”, the ABSORBANCE (serum 5164) was “>” and the ABSORBANCE (serum 5210) was “>”. The ABSORBANCE (serum 5270*) was “>”, the ABSORBANCE (serum 5373) was “>” and the ABSORBANCE (serum 5453) was “>”. For the same sequence, the ABSORBANCE (serum 5766*) was “>”, the ABSORBANCE (serum 5931) was “>” and the ABSORBANCE (serum 5969*) was “>”. For the same sequence, the ABSORBANCE (serum 6111) was “>”, the ABSORBANCE (serum 6165) was 2.714 and the ABSORBANCE (serum 6198*) was “>”. The ABSORBANCE (serum 6295*) was “>”, the ABSORBANCE (serum 6487) was 2.687 and the ABSORBANCE (serum 6512*) was “>”. The ABSORBANCE (serum 6627) was “>”, the ABSORBANCE (serum 6689*) was “>” and the ABSORBANCE (serum 6697) was “>”. For the same sequence, the ABSORBANCE (serum 6782) was 2.462, the ABSORBANCE (serum 6891) was 0.062 and the ABSORBANCE (serum 6976*) was “>”. The ABSORBANCE (serum 6998) was “>”, the ABSORBANCE (serum 7007) was “>” and the ABSORBANCE (serum 7120) was “>”. For the same sequence, the ABSORBANCE (serum 7212) was “>”, the ABSORBANCE (serum 7258*) was 2.477 and the ABSORBANCE (serum 7297*) was “>”. The ABSORBANCE (serum 7439) was “>”, the ABSORBANCE (serum 7443) was “>” and the ABSORBANCE (serum DUR*) was “>”. The ABSORBANCE (serum ESS*) was 2.494, the ABSORBANCE (serum HAD) was 0.041 and the ABSORBANCE (serum VAU*) was “>”. The “immunoreactivity compared with the other peptides (in words)” value (summary of Table IV) was “more immunoreactive than the VAU 22 AA peptide”.

Reference: patent US7053175B1, “Synthetic peptides useful in biological assays for detecting infections caused by group O HIV-1 viruses” (Bio-Rad Pasteur, priority 1997, dated 2006)
